{"source": "patent US12121514B2", "about": "“Nonselective metabotropic glutamate receptor activators for treatment of attention deficit disorder and 22Q syndrome” (THE CHILDREN'S HOSPITAL OF PHILADELPHIA, priority 2015, dated 2024)", "type_in_all_cases": "in vivo, human", "key": {"[1]": {"test_system": "adolescent subjects with ADHD and at least one genetic alteration in an mGluR network gene", "assay": "Actigraphy, Phase Ib trial of NFC-1", "source_text": "Actigraphy is non-invasive monitoring of human rest/activity cycles, using an actigraph worn by the patient to document body movements. Actigraphs can be worn during school, for example, to measure activity levels. Actigraphy analysis can measure changes in sleep and hyperactivity that may be seen with treatment for ADHD.\nAll efficacy assessments, except actigraphy, were made at study enrollment (“enrollment baseline”) and again, including actigraphy, once-per-week for the placebo week (“week 1” or “placebo baseline”) and at each of the 4 weeks of NFC-1 treatment. These efficacy measures include items 1-18 of the Vanderbilt scale assessing symptoms related to inattentiveness and hyperactivity-impulsiveness as well as additional questions 19-47 of the Vanderbilt scale assessing other behavioral symptoms (conducted by parent), actigraphy for quantitative measurement of activity, Quotient® ADHD test for objective measurement of micro-motion and shifts in attention state, PERMP-Math test, and CGI-I and CGI-S for assessment of global functioning. […]"}, "[2]": {"test_system": "subject with ADHD, ODD and conduct disorder (CD)", "assay": "Vanderbilt CD score (items 27-40), Phase Ib trial of NFC-1", "conditions": "Subject 130", "source_text": "The Vanderbilt Rating Scale is a measure that can be completed by parents or teachers (separate forms, see Vanderbilt Rating Scale Parents and Vanderbilt Rating Scale Teachers). The Vanderbilt scale rates the child's behavior on items such as attention, finishing tasks, hyperactivity, difficulty waiting, and measures of conduct or oppositional […] disorders-as well as measures of overall school performance and interactions with others. The first 18 items on the Vanderbilt scale correspond to those of the ADHD Rating Scale IV above while the Vanderbilt scale also includes items 19-47 related to other mental disorders including ODD (items 19-26), conduct disorder (items 27-40), anxiety (items 41, 42, and 47), and depression (items 43-46). Each of the behavioral assessment items on the Vanderbilt Scale are rated 0, 1, 2, or 3, with 0=never occurring; 1=occasionally, 2=often, and 3=very often. Thus, the ADHD Rating Scale IV, ADHD Rating Scale V, and items 1-18 of the Vanderbilt Rating Scale are equivalent scales, while additional items on the Vanderbilt Scale assess co-morbid phenotypes and disorders. One subject screening positive for ODD (no. 130) also screened positive for conduct disorder (CD), based on scores of 2 or 3 for 3 out of the […] behaviors assessed by items 27-40 of the Vanderbilt Scale at enrollment and again at week 1. […]"}, "[3]": {"test_system": "adolescent subjects with ADHD and at least one genetic alteration in an mGluR network gene", "assay": "QUOTIENT ADHD test, Phase Ib trial of NFC-1", "conditions": "Tier-1 genetic group; week 5 (400 mg twice daily); from just over 100; P<0.05", "source_text": "Quotient ADHD scores use a medical device to measure hyperactivity, attention, and impulsivity in patients with ADHD. The Quotient ADHD tool uses motion tracking technology to track a patient's micro-movements while they complete a 15-20-minute computerized test. Following the patient's completion of the test, patterns of motions, the accuracy of responses, and fluctuations in attention state can be analyzed. All efficacy assessments, except actigraphy, were made at study enrollment (“enrollment baseline”) and again, including actigraphy, once-per-week for the placebo week (“week 1” or “placebo baseline”) and at each of the 4 weeks of NFC-1 treatment. These efficacy measures include items 1-18 of the Vanderbilt scale assessing symptoms related to inattentiveness and hyperactivity-impulsiveness as well as additional questions 19-47 of the Vanderbilt scale assessing other behavioral symptoms (conducted by parent), actigraphy for quantitative measurement of activity, Quotient® ADHD test for objective measurement of micro-motion and shifts in attention state, PERMP-Math test, and CGI-I and CGI-S for assessment of global functioning. […]"}}, "data": [{"smiles": "O=C1CC[C@H](C(=O)N2CCCCC2)N1", "note": "[NFC-1, fasoracetam monohydrate]", "values": [{"measurement": "bursts of medium/high intensity movements (actigraphy)", "setting": "[1]; 400 mg bid in comparison with placebo, P<0.001", "value": "significant reduction"}, {"measurement": "reduction in moderate to vigorous physical activity (MVPA)", "setting": "[1]; week 1 (placebo) to week 5, genetic Tiers 1, 2 and 3", "value": "most prominent in 400 mg bid dose group"}, {"measurement": "improvement in Vanderbilt CD score", "setting": "[2]; week 1 to week 5", "value": 4, "unit": "points"}, {"measurement": "Vanderbilt CD score", "setting": "[2]; week 5, out of 16, 16/16 at week 1", "value": 12}, {"measurement": "normalized inattention value (QUOTIENT ADHD test)", "setting": "[3]", "value": "about 90"}]}]}
